Results: patent publication US5217960A, “Erythromycin derivatives” (priority 1991, dated 1993)
Converted amounts (≈) assume the structure as drawn. Read-outs that look alike come from different tables or passages of the source.

Assays:
Assay type in all cases: cell-based
[1] = test system: STAPHYLOCOCCUS AUREUS ATCC 6538P; experiment: In vitro antibacterial activity, agar dilution MIC; conditions: ATCC6538P, 24 h
[2] = test system: STAPHYLOCOCCUS AUREUS A5177; experiment: In vitro antibacterial activity, agar dilution MIC
STAPHYLOCOCCUS AUREUS 45 = experiment: In vitro antibacterial activity, agar dilution MIC
[3] = test system: STAPHYLOCOCCUS AUREUS 642A; experiment: In vitro antibacterial activity, agar dilution MIC; conditions: 24 h
[4] = test system: STAPHYLOCOCCUS AUREUS NCTC 10649; experiment: In vitro antibacterial activity, agar dilution MIC
[5] = test system: STAPHYLOCOCCUS AUREUS CMX 553; experiment: In vitro antibacterial activity, agar dilution MIC
[6] = test system: STAPHYLOCOCCUS AUREUS 1775; experiment: In vitro antibacterial activity, agar dilution MIC; conditions: S. aureus 1775, BHI agar, 35-37° C., 20 to 24 hours, read-out: MIC
[7] = test system: STAPHYLOCOCCUS EPIDERMIDIS 3519; experiment: microbe, parasite or virus in culture
EN[…] ATCC 8043 = experiment: In vitro antibacterial activity, agar dilution MIC; conditions: Enterococcus faecium, ATCC8043, 24 h
Description: (§1) Representative compounds of the present invention were assayed in vitro for antibacterial activity as follows: Twelve petri dishes containing successive aqueous dilutions of the test compound mixed with 10 ml of sterilized Brain Heart Infusion (BHI) agar (Difco 0418-01-5) were prepared. Each plate was inoculated with 1:100 (or 1:10 for slow-growing strains, such as Micrococcus and Streptococcus) dilutions of up to 32 different microorganisms, using a Steers replicator block. The inoculated plates were incubated at 35°-37° C. for 20 to 24 hours. In addition, a control plate, using BHI agar containing no test compound, was prepared and incubated at the beginning and end of each test.
(§2) An additional plate containing a compound having known susceptibility patterns for the organisms being tested and belonging to the same antibiotic class as the test compound was also prepared and incubated as a further control, as well as to provide test-to-test comparability. Erythromycin A was used for this purpose.
(§3) After incubation, each disk was read. The minimum inhibitory concentration (MIC) was defined as the lowest concentration of drug yielding no growth, a slight haze, or sparsely isolated colonies on the inoculum spot as compared to the growth control. The results of this assay, shown below in Tables 1 and 2, support the conclusion that the compounds of the invention are effective antibacterial agents.

M[…] ATCC 4698 = experiment: In vitro antibacterial activity, agar dilution MIC; conditions: Micrococcus luteus, ATCC4698, 24 h
Description: as §1, §2, §3

M[…] ATCC 9341 = experiment: In vitro antibacterial activity, agar dilution MIC; conditions: Micrococcus luteus, ATCC9341, 24 h
Description: as §1, §2, §3

[8] = test system: PSEUDOMONAS AERUGINOSA K799/61; experiment: In vitro antibacterial activity, agar dilution MIC
Description: as §1, §2, §3

[9] = test system: STREPTOCOCCUS BOVIS A5169; experiment: In vitro antibacterial activity, agar dilution MIC
STR[…] 508 = experiment: In vitro antibacterial activity, agar dilution MIC; conditions: Streptococcus agalactiae, 24 h
Description: as §1, §2
(§4) After incubation, each disk was read. The minimum inhibitory concentration (MIC) was defined as the lowest concentration of drug yielding no growth, a slight haze, or sparsely isolated colonies on the inoculum spot as compared to the growth control.

STR[…] EES61 = experiment: In vitro antibacterial activity, agar dilution MIC; conditions: Streptococcus pyogenes, 24 h
Description: as §1, §2, §4

[10] = test system: STREPTOCOCCUS PYOGENES 930 CONST; experiment: In vitro antibacterial activity, agar dilution MIC
[11] = test system: STREPTOCOCCUS PYOGENES 2548 INDUC; experiment: In vitro antibacterial activity, agar dilution MIC; conditions: S. pyogenes 2548 INDUC, BHI agar, 35-37° C., 20 to 24 hours, read-out: MIC
ESCHERICHIA COLI JUHL = experiment: microbe, parasite or virus in culture; conditions: E. coli JUHL, BHI agar, 35-37° C., 20 to 24 hours, read-out: MIC
ESCHERICHIA COLI SS = experiment: In vitro antibacterial activity, agar dilution MIC
ESCHERICHIA COLI DC-2 = experiment: In vitro antibacterial activity, agar dilution MIC; conditions: E. coli DC-2, BHI agar, 35-37° C., 20 to 24 hours, read-out: MIC
ESCHERICHIA COLI H560 = experiment: In vitro antibacterial activity, agar dilution MIC; conditions: E. coli H560, BHI agar, 35-37° C., 20 to 24 hours, read-out: MIC
ESCHERICHIA COLI KNK 437 = experiment: microbe, parasite or virus in culture; conditions: E. coli KNK 437, BHI agar, 35-37° C., 20 to 24 hours
[12] = test system: ENTEROBACTER AEROGENES ATCC 13048; experiment: In vitro antibacterial activity, agar dilution MIC; conditions: Klebsiella aerogenes, ATCC13048; E. aerogenes ATCC 13048; BHI agar, 35-37° C., 20 to 24 hours; read-out: MIC
[13] = test system: KLEBSIELLA PNEUMONIAE ATCC 8045; experiment: In vitro antibacterial activity, agar dilution MIC; conditions: ATCC8045, K. pneumoniae ATCC 8045, BHI agar, 35-37° C., 20 to 24 hours, read-out: MIC
[14] = test system: PROVIDENCIA STUARTII CMX 640; experiment: microbe, parasite or virus in culture; conditions: P. stuartii CMX 640, BHI agar, 35-37° C., 20 to 24 hours
[15] = test system: PSEUDOMONAS AERUGINOSA BMH10; experiment: In vitro antibacterial activity, agar dilution MIC; conditions: P. aeruginosa BMH10, BHI agar, 35-37° C., 20 to 24 hours, read-out: MIC
[16] = test system: PSEUDOMONAS AERUGINOSA A5007; experiment: In vitro antibacterial activity, agar dilution MIC; conditions: P. aeruginosa A5007, BHI agar, 35-37° C., 20 to 24 hours
[17] = test system: PSEUDOMONAS AERUGINOSA K799/WT; experiment: In vitro antibacterial activity, agar dilution MIC; conditions: P. aeruginosa K799/WT, BHI agar, 35-37° C., 20 to 24 hours
PSEUDOMONAS CEPACIA 296I = experiment: In vitro antibacterial activity, agar dilution MIC; conditions: Burkholderia cepacia; P. cepacia 296I; BHI agar, 35-37° C., 20 to 24 hours; read-out: MIC
[18] = test system: ACINETOBACTER CALCOACETICUS CMX 669; experiment: In vitro antibacterial activity, agar dilution MIC; conditions: A. calcoaceticus CMX 669, BHI agar, 35-37° C., 20 to 24 hours

SMILES: CC[C@H]1OC(=O)[C@H](C)[C@@H](O[C@H]2C[C@@](C)(OC)[C@@H](O)[C@H](C)O2)[C@H](C)[C@@H](O[C@@H]2O[C@H](C)C[C@H](N(C)C)[C@H]2O)[C@](C)(O)C[C@@H](C)[C@@H](N)[C@H](C)[C@@H](O)[C@@]1(O)CN [Compound 15, (9R)-9,21-diamino-9-deoxo-erythromycin A]
- MIC [1]: 25 µg/mL (≈ 33.3 µM)
- MIC ([2]; S. aureus A5177, BHI agar, 35-37° C., 20 to 24 hours, read-out: MIC): > 100 µg/mL
- MIC (STAPHYLOCOCCUS AUREUS 45; S. aureus 45, BHI agar, 35-37° C., 20 to 24 hours, read-out: MIC): 100 µg/mL (≈ 133 µM)
- MIC [3]: 12.5 µg/mL (≈ 16.7 µM)
- MIC ([4]; NCTC10649, S. aureus NCTC 10649, BHI agar, 35-37° C., 20 to 24 hours, read-out: MIC): 100 µg/mL (≈ 133 µM)
- MIC ([5]; S. aureus CMX 553, BHI agar, 35-37° C., 20 to 24 hours, read-out: MIC): 100 µg/mL (≈ 133 µM)
- MIC [6]: 100 µg/mL (≈ 133 µM)
- MIC ([7]; S. epidermidis 3519, BHI agar, 35-37° C., 20 to 24 hours, read-out: MIC): > 100 µg/mL
- MIC (EN[…] ATCC 8043): 12.5 µg/mL (≈ 16.7 µM)
- MIC (M[…] ATCC 4698): 12.5 µg/mL (≈ 16.7 µM)
- MIC (M[…] ATCC 9341): 50 µg/mL (≈ 66.7 µM)
- MIC ([8]; 24 h): > 100 µg/mL
- MIC ([9]; S. bovis A5169, BHI agar, 35-37° C., 20 to 24 hours, read-out: MIC): 100 µg/mL (≈ 133 µM)
- MIC (STR[…] 508): 12.5 µg/mL (≈ 16.7 µM)
- MIC (STR[…] EES61): 25 µg/mL (≈ 33.3 µM)
- MIC ([10]; 24 h): 12.5 µg/mL (≈ 16.7 µM)
- MIC [11]: > 100 µg/mL
- MIC (ESCHERICHIA COLI JUHL): 100 µg/mL (≈ 133 µM)
- MIC (ESCHERICHIA COLI SS; E. coli SS, BHI agar, 35-37° C., 20 to 24 hours, read-out: MIC): > 100 µg/mL
- MIC (ESCHERICHIA COLI DC-2): 3.1 µg/mL (≈ 4.13 µM)
- MIC (ESCHERICHIA COLI H560): > 100 µg/mL
- MIC (ESCHERICHIA COLI KNK 437): 100 µg/mL (≈ 133 µM)
- MIC [12]: > 100 µg/mL
- MIC [13]: > 100 µg/mL
- MIC [14]: > 100 µg/mL
- MIC [15]: > 100 µg/mL
- MIC [16]: > 100 µg/mL
- MIC [17]: > 100 µg/mL
- MIC (PSEUDOMONAS CEPACIA 296I): 100 µg/mL (≈ 133 µM)
- MIC [18]: > 100 µg/mL

SMILES: CC[C@H]1OC(=O)[C@H](C)[C@@H](O[C@H]2C[C@@](C)(OC)[C@@H](O)[C@H](C)O2)[C@H](C)[C@@H](O[C@@H]2O[C@H](C)C[C@H](N(C)C)[C@H]2O)[C@](C)(O)C[C@@H](C)[C@@H](N(C)C)[C@H](C)[C@@H](O)[C@@]1(O)CO [Compound 10, (9R)-9-deoxo-9-(N,N-dimethylamino)-21-hydroxyerythromycin A]
- MIC [1]: 25 µg/mL (≈ 32.1 µM)
- MIC ([2]; 24 h): > 100 µg/mL
- MIC (STAPHYLOCOCCUS AUREUS 45; 24 h): 25 µg/mL (≈ 32.1 µM)
- MIC [3]: 25 µg/mL (≈ 32.1 µM)
- MIC ([4]; NCTC10649, 24 h): 12.5 µg/mL (≈ 16 µM)
- MIC ([5]; 24 h): 25 µg/mL (≈ 32.1 µM)
- MIC [6]: > 100 µg/mL
- MIC ([7]; 24 h): 25 µg/mL (≈ 32.1 µM)
- MIC (EN[…] ATCC 8043): 12.5 µg/mL (≈ 16 µM)
- MIC (M[…] ATCC 4698): 3.1 µg/mL (≈ 3.98 µM)
- MIC (M[…] ATCC 9341): 6.2 µg/mL (≈ 7.96 µM)
- MIC ([8]; P. aeruginosa K799/61, BHI agar, 35-37° C., 20 to 24 hours, read-out: MIC): 50 µg/mL (≈ 64.2 µM)
- MIC ([9]; 24 h): 3.1 µg/mL (≈ 3.98 µM)
- MIC (STR[…] 508): 3.1 µg/mL (≈ 3.98 µM)
- MIC (STR[…] EES61): 1.56 µg/mL (≈ 2 µM)
- MIC ([10]; S. pyogenes 930 CONST, BHI agar, 35-37° C., 20 to 24 hours, read-out: MIC): > 100 µg/mL
- MIC [11]: 100 µg/mL (≈ 128 µM)
- MIC (ESCHERICHIA COLI JUHL): > 100 µg/mL
- MIC (ESCHERICHIA COLI SS; 24 h): 1.56 µg/mL (≈ 2 µM)
- MIC (ESCHERICHIA COLI DC-2): > 100 µg/mL
- MIC (ESCHERICHIA COLI H560): 100 µg/mL (≈ 128 µM)
- MIC (ESCHERICHIA COLI KNK 437): > 100 µg/mL
- MIC [12]: > 100 µg/mL
- MIC [13]: > 100 µg/mL
- MIC [14]: > 100 µg/mL
- MIC [15]: > 100 µg/mL
- MIC [16]: > 100 µg/mL
- MIC [17]: > 100 µg/mL
- MIC (PSEUDOMONAS CEPACIA 296I): > 100 µg/mL
- MIC [18]: > 100 µg/mL
